Data on 9 molecules can be found in ChEMBL document CHEMBL5233210, “Pyrazolone structural motif in medicinal chemistry: Retrospect and prospect” (Eur J Med Chem, 2020).

Converted amounts (≈) assume the structure as drawn.

Test [1] deals with Streptococcus pyogenes. The experiment in a line: Antibacterial activity against Streptococcus pyogenes. The test is classed as functional.
Test [2] has as its system Pseudomonas aeruginosa. Kind of test: Antibacterial activity against Pseudomonas aeruginosa. The format is functional.
For test [3], the system named is Escherichia coli. The experiment in a line: Antibacterial activity against Escherichia coli. The test is classed as functional.
Test [4] relates to Aspergillus fumigatus. The experiment in a line: Antifungal activity against Aspergillus fumigatus. The test is classed as functional.
Test [5] has as its system Candida albicans. Kind of test: Antifungal activity against Candida albicans. The format is functional.
Test [6] deals with Bacillus subtilis. Kind of test: Antibacterial activity against Bacillus subtilis assessed as diameter of inhibition zone at 100 ppm. The format is functional. The following applies: read-out: DIZ.
The test system of test [7] is Streptococcus mutans. The experiment in a line: Antibacterial activity against Streptococcus mutans assessed as diameter of inhibition zone at 100 ppm. The format is functional. The note with it: read-out: DIZ.
Test [8] has as its system Micrococcus luteus. Kind of test: Antibacterial activity against Micrococcus luteus assessed as diameter of inhibition zone at 100 ppm. The format is functional. The following applies: read-out: DIZ.
Test [9] relates to Pseudomonas aeruginosa. Kind of test: Antibacterial activity against Pseudomonas aeruginosa assessed as diameter of inhibition zone at 100 ppm. The test is classed as functional. The following applies: read-out: DIZ.
Test [10] has as its system Salmonella typhi. The experiment in a line: Antibacterial activity against Salmonella typhi assessed as diameter of inhibition zone at 100 ppm. The following applies: Salmonella enterica, read-out: DIZ. The format is functional, Salmonella enterica subsp. enterica serovar Typhi.
Test [11] relates to Salmonella paratyphi. Kind of test: Antibacterial activity against Salmonella paratyphi assessed as diameter of inhibition zone at 100 ppm. The format is functional, Salmonella enterica subsp. enterica serovar Paratyphi A. The note with it: Salmonella enterica, read-out: DIZ.
For test [12], the system named is Candida albicans. Kind of test: Antifungal activity against Candida albicans assessed as diameter of inhibition zone at 100 ppm. The format is functional. The note with it: read-out: DIZ.
Test [13] deals with Trichoderma viride. The experiment in a line: Antifungal activity against Trichoderma viride assessed as diameter of inhibition zone at 100 ppm. The format is functional. The following applies: read-out: DIZ.
The species named for test [14] is Mus musculus. Kind of test: Antidepressant activity in Swiss albino mouse assessed as change in immobility by forced swim test. The test is classed as functional.
For test [15], the species on record is Mus musculus. Kind of test: Antidepressant activity in Swiss albino mouse assessed as decrease in immobility time by forced swim test (reference value: 203.3 sec). The test is classed as functional.
The species entered for test [16] is Mus musculus. Kind of test: Antidepressant activity in Swiss albino mouse assessed as decrease in immobility time by tail suspension test (reference value: 185.8 sec). The test is classed as functional.
The species entered for test [17] is Mus musculus. Kind of test: Antidepressant activity in Swiss albino mouse assessed as change in immobility by tail suspension test. The format is functional.

For `CC(C)CCC[C@@H](C)[C@H]1CC[C@H]2[C@@H]3C/C(=C4\C(=O)NN=C4N)C4CCCC[C@]4(C)[C@H]3CC[C@]12C` (stereo partly specified), the MIC in test [1] was 50 µg/mL (≈ 107 µM); in [2], 50 µg/mL (≈ 107 µM); in test [3], 50 µg/mL (≈ 107 µM); in [4] it was 25 µg/mL (≈ 53.4 µM); in test [5], 25 µg/mL (≈ 53.4 µM).
On to `Cc1[nH]n(-c2ccccc2)c(=O)c1C(c1ccc(Br)cc1)c1c(O)ccc2ccccc12` (stereo unspecified), for which the zone of inhibition at 100 µg/mL in test [6] came to 18.5 mm; in test [7], 29.5 mm; in test [8] it was 18.5 mm; in test [9], 14.5 mm; in test [10], 19.5 mm; in [11] it was 19.5 mm. The zone of inhibition at 100 µg/mL was 15.5 mm in test [12] and 13.5 mm in [13].
Consider `Cc1[nH]n(-c2ccccc2)c(=O)c1C(c1ccc([N+](=O)[O-])cc1[N+](=O)[O-])c1c(O)ccc2ccccc12` (stereo unspecified), for which the zone of inhibition at 100 µg/mL worked out at 22.5 mm in [6]; 14.5 mm in test [7]; 21.5 mm in test [8]; 13.5 mm in [9]; 20 mm in [10]; 20 mm in [11]. Also, the zone of inhibition at 100 µg/mL in test [12] was 28.5 mm; in test [13], 21.5 mm.
In the case of `CC1=NN(C(=O)c2ccc3ccccc3c2)C(=O)C1/N=N/c1ccc(C)cc1C` (stereo unspecified), the Activity in test [14] is reported as -36.3%; in [17] it was -40.2%. The Time in test [15] came out at 129.5 s; in [16], 111 s.
Regarding `CC(=O)OC1CC[C@@]2(C)C(C1)/C(=C1/C(=O)NN=C1N)C[C@H]1[C@@H]3CC[C@H]([C@H](C)CCCC(C)C)[C@@]3(C)CC[C@@H]12` (stereo partly specified), the MIC in [1] came to 50 µg/mL (≈ 95.1 µM); in test [2] it was 50 µg/mL (≈ 95.1 µM); in test [3] it was 50 µg/mL (≈ 95.1 µM); in test [4], 50 µg/mL (≈ 95.1 µM); in [5] it was 25 µg/mL (≈ 47.5 µM).
For the molecule `Cc1[nH]n(-c2ccccc2)c(=O)c1C(c1ccc(Br)c(F)c1)c1c(O)ccc2ccccc12` (stereo unspecified), the zone of inhibition at 100 µg/mL amounted to 19.5 mm in test [6]; 18 mm in test [7]; 16.5 mm in test [8]; 14.5 mm in test [9]; 20.5 mm in test [10]; 19.5 mm in [11]. In addition, the zone of inhibition at 100 µg/mL was found to be 18.5 mm in test [12] and 10.5 mm in [13].
For the molecule `CC1=NN(C(=O)c2ccc3ccccc3c2)C(=O)C1/N=N/c1ccc(Cl)cc1Cl` (stereo unspecified), the values for the Activity in [14] and in [17] were -51.9% and -38.4%, respectively. Besides, the Time turned out to be 97.7 s in test [15] and 114.3 s in test [16].
Consider `CC(C)CCC[C@@H](C)[C@H]1CC[C@H]2[C@@H]3C/C(=C4\C(=O)NN=C4N)C4CC(Cl)CC[C@]4(C)[C@H]3CC[C@]12C` (stereo partly specified), for which the MIC in test [1] worked out at 50 µg/mL (≈ 99.6 µM); in [2], 50 µg/mL (≈ 99.6 µM); in test [3], 100 µg/mL (≈ 199 µM); in [4], 50 µg/mL (≈ 99.6 µM); in [5], 50 µg/mL (≈ 99.6 µM).
Turning to `CN(C)CCCN1c2ccccc2CCc2ccccc21` [IMIPRAMINE], the Activity in test [14] is given as -53.8%; in test [17], -41.3%. The Time is listed as 94 s in [15] and 109 s in test [16].
